Measurements reported in paper PMC6242839 (Nature Communications, 2018).
Converted amounts (≈) assume the structure as drawn. Like-named read-outs stand apart in the source and are kept apart here.

Columns and labels:
[1] = tested on: B. cereus ATCC 14579 spores and vegetative cells; test: microbe, parasite or virus in culture; assay type: cell-based; conditions: Bacillus cereus
[2] = tested on: B. cereus ATCC 14579 mutant library; assay type: cell-based, Bacillus cereus
[3] = tested on: B. anthracis pathogenic strain (human isolate); test: microbe, parasite or virus in culture; assay type: cell-based; conditions: Bacillus anthracis, read-out: MIC B. anthracis Pathogenic
[4] = POPE LUVs, compound 50 µM; for leakage of encapsulated carboxyfluorescein: course of the experiment (14 h)
[5] = tested on: B. cereus ATCC 14579; test: microbe, parasite or virus in culture; assay type: cell-based, Bacillus cereus
[6] = tested on: B. anthracis Sterne strain; test: microbe, parasite or virus in culture; assay type: cell-based; conditions: Bacillus anthracis, read-out: MIC B. anthracis Sterne
[7] = tested on: B. cereus ATCC 14579; test: microbe, parasite or virus in culture; assay type: cell-based; conditions: Bacillus cereus, ATCC14579
[8] = tested on: S. aureus ATCC 29213; test: microbe, parasite or virus in culture; assay type: cell-based; conditions: Staphylococcus aureus, ATCC29213
[9] = tested on: B. cereus ATCC 14579 strains resistant to known antibiotics; test: microbe, parasite or virus in culture; assay type: cell-based, Bacillus cereus
[10] = POPC LUVs, compound 50 µM
[11] = in vitro; conditions: human
[12] = tested on: E. faecalis (ATCC 29212); test: microbe, parasite or virus in culture; assay type: cell-based; conditions: Enterococcus faecalis, read-out: MIC E. faecalis
[13] = tested on: E. coli K12 spheroplasts; test: microbe, parasite or virus in culture; assay type: cell-based, Escherichia coli
[14] = tested on: B. cereus ATCC 14579; test: microbe, parasite or virus in culture; assay type: cell-based, Bacillus cereus; remark: listed apart in the source
[15] = tested on: E. coli K12; test: microbe, parasite or virus in culture; assay type: cell-based; conditions: Escherichia coli
[16] = tested on: B. subtilis 168 and knockout mutants; test: microbe, parasite or virus in culture; assay type: cell-based; conditions: Bacillus subtilis
[17] = tested on: B. cereus ATCC 14579 protoplasts; test: microbe, parasite or virus in culture; assay type: cell-based; conditions: Bacillus cereus, ATCC14579
[18] = tested on: B. cereus (ATCC 10876); test: microbe, parasite or virus in culture; assay type: cell-based; conditions: Bacillus cereus, read-out: MIC B. cereus
[19] = tested on: S. aureus ATCC 29213 protoplasts; test: microbe, parasite or virus in culture; assay type: cell-based, Staphylococcus aureus
[20] = tested on: B. anthracis ovine strain (animal isolate); test: microbe, parasite or virus in culture; assay type: cell-based; conditions: Bacillus anthracis, read-out: MIC B. anthracis Ovine
[21] = tested on: Bacillus cereus ATCC 14579; conditions: cited from earlier work
[22] = B. subtilis 168, parental isogenic strain

Compound: CCCCCCCCCCCCO[C@H]1C[C@H](O)[C@@H](O)[C@H](C)O1 [Compound 1]
- MBC ([1]; ATCC14579, 20 min): 0.008 mg/mL (≈ 25.3 µM)
- MBC ([1]; ATCC14579, 0.5 h): 0.008 mg/mL (≈ 25.3 µM)
- MIC of mutant library compared with the parental strain [2]: MIC values remain unchanged
- MIC ([3]; 16 h): 25 µM (≈ 7.91 µg/mL)
- time of leakage, τL [4]: about 160 min
- leakage of encapsulated carboxyfluorescein [4]: ~ 100%
- 1000-fold reduction (T99.9) [5]: ≤ 60 min
- MBC [5]: 0.032 mg/mL (≈ 101 µM)
- MBC ([5]; Bacillus cereus, ATCC14579): 0.016 mg/mL (≈ 50.6 µM)
- MIC ([6]; 16 h): 25 µM (≈ 7.91 µg/mL)
- MIC [7]: 0.016 mg/mL (≈ 50.6 µM)
- MIC [8]: 0.256 mg/mL (≈ 809 µM)
- MBC ([9]; Bacillus cereus, ATCC14579): 0.016 mg/mL (≈ 50.6 µM)
- MIC ([9]; Bacillus cereus, ATCC14579): 0.016 mg/mL (≈ 50.6 µM)
- Lmax value obtained from the fit [10]: < 50%
- time of leakage, τL [10]: about 692 min
- total membrane leakage ([10]; course of the experiment (14 h)): ~ 30%
- IC50 at 24 h [11]: 100 µM
- IC50 at 48 h [11]: > 50 µM
- MIC ([12]; ATCC29212, 16 h): 50 µM (≈ 15.8 µg/mL)
- MIC ([13]; Escherichia coli): 0.004 mg/mL (≈ 12.6 µM)
- MBC [14]: 0.032 mg/mL (≈ 101 µM)
- MBC ([14]; Bacillus cereus, ATCC14579): 0.016 mg/mL (≈ 50.6 µM)
- MIC ([14]; Bacillus cereus, ATCC14579): 0.016 mg/mL (≈ 50.6 µM)
- MIC [15]: 0.256 mg/mL (≈ 809 µM)
- MBC [16, 22]: 0.032 mg/mL (≈ 101 µM)
- MIC [16, 22]: 0.016 mg/mL (≈ 50.6 µM)
- MBC ([16]; B. subtilis ΔexpZ): 0.032 mg/mL (≈ 101 µM)
- MIC ([16]; B. subtilis ΔexpZ): 0.016 mg/mL (≈ 50.6 µM)
- MBC ([16]; B. subtilis ΔmtlA): 0.032 mg/mL (≈ 101 µM)
- MIC ([16]; B. subtilis ΔmtlA): 0.016 mg/mL (≈ 50.6 µM)
- MBC ([16]; B. subtilis ΔtreP): 0.016 mg/mL (≈ 50.6 µM)
- MIC ([16]; B. subtilis ΔtreP): 0.016 mg/mL (≈ 50.6 µM)
- MBC ([16]; B. subtilis ΔybbF): 0.016 mg/mL (≈ 50.6 µM)
- MIC ([16]; B. subtilis ΔybbF): 0.016 mg/mL (≈ 50.6 µM)
- MBC ([16]; B. subtilis ΔybdA): 0.032 mg/mL (≈ 101 µM)
- MIC ([16]; B. subtilis ΔybdA): 0.016 mg/mL (≈ 50.6 µM)
- MBC ([16]; B. subtilis ΔybdB): 0.032 mg/mL (≈ 101 µM)
- MIC ([16]; B. subtilis ΔybdB): 0.016 mg/mL (≈ 50.6 µM)
- MBC ([16]; B. subtilis ΔydhO): 0.032 mg/mL (≈ 101 µM)
- MIC ([16]; B. subtilis ΔydhO): 0.016 mg/mL (≈ 50.6 µM)
- MBC ([16]; B. subtilis ΔyfiB): 0.032 mg/mL (≈ 101 µM)
- MIC ([16]; B. subtilis ΔyfiB): 0.032 mg/mL (≈ 101 µM)
- MBC ([16]; B. subtilis ΔyfiC): 0.016 mg/mL (≈ 50.6 µM)
- MIC ([16]; B. subtilis ΔyfiC): 0.016 mg/mL (≈ 50.6 µM)
- MBC ([16]; B. subtilis ΔyfiM): 0.016 mg/mL (≈ 50.6 µM)
- MIC ([16]; B. subtilis ΔyfiM): 0.016 mg/mL (≈ 50.6 µM)
- MBC ([16]; B. subtilis ΔyfiN): 0.032 mg/mL (≈ 101 µM)
- MIC ([16]; B. subtilis ΔyfiN): 0.016 mg/mL (≈ 50.6 µM)
- MBC ([16]; B. subtilis ΔyflF): 0.032 mg/mL (≈ 101 µM)
- MIC ([16]; B. subtilis ΔyflF): 0.016 mg/mL (≈ 50.6 µM)
- MBC ([16]; B. subtilis ΔyfmR): 0.016 mg/mL (≈ 50.6 µM)
- MIC ([16]; B. subtilis ΔyfmR): 0.016 mg/mL (≈ 50.6 µM)
- MBC ([16]; B. subtilis ΔygaD): 0.016 mg/mL (≈ 50.6 µM)
- MIC ([16]; B. subtilis ΔygaD): 0.016 mg/mL (≈ 50.6 µM)
- MBC ([16]; B. subtilis ΔyhaQ): 0.016 mg/mL (≈ 50.6 µM)
- MIC ([16]; B. subtilis ΔyhaQ): 0.016 mg/mL (≈ 50.6 µM)
- MBC ([16]; B. subtilis ΔyhcJ): 0.016 mg/mL (≈ 50.6 µM)
- MIC ([16]; B. subtilis ΔyhcJ): 0.016 mg/mL (≈ 50.6 µM)
- MBC ([16]; B. subtilis ΔyheH): 0.032 mg/mL (≈ 101 µM)
- MIC ([16]; B. subtilis ΔyheH): 0.016 mg/mL (≈ 50.6 µM)
- MBC ([16]; B. subtilis ΔyjdD): 0.016 mg/mL (≈ 50.6 µM)
- MIC ([16]; B. subtilis ΔyjdD): 0.016 mg/mL (≈ 50.6 µM)
- MBC ([16]; B. subtilis ΔykfD): 0.016 mg/mL (≈ 50.6 µM)
- MIC ([16]; B. subtilis ΔykfD): 0.016 mg/mL (≈ 50.6 µM)
- MBC ([16]; B. subtilis ΔyknU): 0.032 mg/mL (≈ 101 µM)
- MIC ([16]; B. subtilis ΔyknU): 0.016 mg/mL (≈ 50.6 µM)
- MBC ([16]; B. subtilis ΔykoD): 0.016 mg/mL (≈ 50.6 µM)
- MIC ([16]; B. subtilis ΔykoD): 0.016 mg/mL (≈ 50.6 µM)
- MBC ([16]; B. subtilis ΔykpA): 0.032 mg/mL (≈ 101 µM)
- MIC ([16]; B. subtilis ΔykpA): 0.016 mg/mL (≈ 50.6 µM)
- MBC ([16]; B. subtilis ΔyvcC): 0.032 mg/mL (≈ 101 µM)
- MIC ([16]; B. subtilis ΔyvcC): 0.016 mg/mL (≈ 50.6 µM)
- MBC ([16]; B. subtilis ΔywbA): 0.032 mg/mL (≈ 101 µM)
- MIC ([16]; B. subtilis ΔywbA): 0.016 mg/mL (≈ 50.6 µM)
- MBC ([16]; B. subtilis ΔywhQ): 0.032 mg/mL (≈ 101 µM)
- MIC ([16]; B. subtilis ΔywhQ): 0.016 mg/mL (≈ 50.6 µM)
- MBC ([16]; B. subtilis ΔyxdM): 0.032 mg/mL (≈ 101 µM)
- MIC ([16]; B. subtilis ΔyxdM): 0.016 mg/mL (≈ 50.6 µM)
- MBC ([16]; B. subtilis ΔyybL): 0.032 mg/mL (≈ 101 µM)
- MIC ([16]; B. subtilis ΔyybL): 0.016 mg/mL (≈ 50.6 µM)
- MIC [17]: 0.016 mg/mL (≈ 50.6 µM)
- MIC ([18]; ATCC10876, 16 h): 25 µM (≈ 7.91 µg/mL)
- MIC ([19]; Staphylococcus aureus, ATCC29213): 0.256 mg/mL (≈ 809 µM)
- MIC ([20]; 16 h): 25 µM (≈ 7.91 µg/mL)

Compound: CCCCCCCCCCCCO[C@@H]1C[C@@H](O)[C@H](O)[C@@H](CO)O1 [Compound 13]
- MIC ([3]; 16 h at 37 °C): 12 µM (≈ 3.99 µg/mL)
- time of leakage, τL [4]: about 326 min
- leakage of encapsulated carboxyfluorescein [4]: ~ 10%
- MIC ([6]; 16 h at 37 °C): 386 µM (≈ 128 µg/mL)
- time of leakage, τL [10]: ~256 min
- IC50 at 24 h [11]: 100 µM
- IC50 at 48 h [11]: > 50 µM
- MIC ([12]; ATCC29212, 16 h at 37 °C): 12 µM (≈ 3.99 µg/mL)
- MBC ([14]; Bacillus cereus, ATCC14579): 0.128 mg/mL (≈ 385 µM)
- MIC ([14]; Bacillus cereus, ATCC14579): 0.128 mg/mL (≈ 385 µM)
- MIC ([18]; ATCC10876, 16 h at 37 °C): 386 µM (≈ 128 µg/mL)
- MIC ([20]; 16 h at 37 °C): 12 µM (≈ 3.99 µg/mL)

Compound: CN[C@H](CC(C)C)C(=O)N[C@H]1C(=O)N[C@@H](CC(N)=O)C(=O)N[C@H]2C(=O)N[C@H]3C(=O)N[C@H](C(=O)N[C@H](C(=O)O)c4cc(O)cc(O)c4-c4cc3ccc4O)[C@H](O)c3ccc(c(Cl)c3)Oc3cc2cc(c3O[C@@H]2O[C@H](CO)[C@@H](O)[C@H](O)[C@H]2O[C@H]2C[C@](C)(N)[C@H](O)[C@H](C)O2)Oc2ccc(cc2Cl)[C@H]1O [Vancomycin]
- MIC [21]: 0.00018 mg/mL (≈ 0.124 µM)
- MIC of the antibiotic [9]: 0.005 mg/mL

Compound: Polymyxin B [reference compound]
- MIC [21]: 0.781 mg/mL
- MIC [13]: > 1000 mg/mL
- MIC [19]: > 1000 mg/mL
